{"source": "patent US5990137A", "about": "“Method of inhibiting NADPH oxidase” (Idun Pharmaceuticals, Inc., priority 1998, dated 1999)", "key": {"[1]": {"test_system": "isolated neutrophils (opsonized zymosan-stimulated oxidative burst)", "test": "Measurement of chemiluminescence of isolated neutrophils (neutrophil burst, Lucigenin)", "type": "cell-based", "details": "Neutrophil; for IC50: 14 min, opsonized zymosan, lucigenin, 37° C.", "description": "Whole blood (150 ml) was anticoagulated with Acid Citrate Dextrose (ACD) using a ratio of 1:5 ACD to blood.\nAll steps are to be performed using polypropylene plastic ware.\na. Whole blood (60 ml) was added to each of three 100 ml polypropylene graduated cylinders containing 30 ml of […]. The cylinders were covered securely with Parafilm. The blood was allowed to sediment for approximately 1 hour at room temperature.\nb. The turbid straw-colored layer was harvested from the top of the cylinders into 50 ml conical polypropylene tubes. The white blood cells were pelleted by centrifugation at 240×g (Sorvall at 1200 rpm) for 12 min. at 4° C. with the brake on low.\nc. The supernatant was removed by aspiration and the pooled pellet resuspended in 4-50 ml cold PBS (w/o Ca, Mg). It was then centrifuged at 240×g (Sorvall at 1200 rpm) for 6 min. at 4° C. with the brake on high.\na. The supernatant was aspirated and the pellet resuspended in 12 ml of cold cell culture-grade water. The pellet was titrated gently with a pipet for exactly 30 seconds then 4 ml of cold 0.6 M KCl was added. It was then QSed to 50 ml with cold PBS (w/o Ca, Mg) and centrifuged at 300×g (Sorvall TY 6000D at 1400 rpm) for 6 min. at 4° C. with the brake on high.\nb. Step 2.a. was repeated once more.\na. The supernatant was aspirated and the cells were resuspended in 2.5 ml cold PBS (w/o Ca, Mg). The cell suspension was carefully layered over 3 ml Ficoll-Hypaque in a 15 ml polypropylene conical tube. It was then centrifuged at 400×g (Sorvall at 1900 rpm) for 30 min. at 4° C. with the brake on low.\nb. Aspiration occurred down to the neutrophil pellet. The pellet was resuspended fin cold PBS (w/o Ca, Mg) and transferred to a 50 ml conical tube. It was then QSed to 50 ml with cold PBS (w/o Ca, Mg) and centrifuged at 300×g (Sorvall at 1400 rpm) for 6 min. at 4° C. with the brake on high.\nd. The supernatant was aspirated and the pellet resuspended in 50 ml cold PBS (w/o Ca, Mg) and centrifuged at 300×g (Sorvall at 1400 rpm) for 6 min. with the brake on high.\ne. The supernatant was aspirated and the neutrophil pellet resuspended in 4.0 ml cold PBS (w/o Ca, Mg). It was kept on ice. Trypan blue (10 μl) was diluted (1:40) and the cells were counted using a hemacytometer. The cell number and viability by Trypan […] exclusion were determined and the results recorded. The cells were diluted to 5.0×10^6 cells/ml with cold PBS-G (with Ca, Mg) prior to plating for the assay.\n2. […] The suspension was centrifuged and the particles resuspended in 7 ml of PBS-G (with Ca, Mg)(18 mg/ml). It was stored on ice until used (briefly vortexed prior to pipetting).\n4. PBS-G (10 μl) (with Ca, Mg) was added to the wells in a white 96 well plate.\n6. The compound dilutions (10 μl) were added to the appropriate wells.\n7. The cell prep was diluted to 5.0×10^6 cells/ml with PBS-G (with Ca, Mg) in a separate multipipette trough.\n8. The neutrophil suspension (20 μl) was added to the appropriate wells.\n9. The plate was incubated at 37° C. for three minutes.\n10. Zymosan (10 μl of 18 mg/ml) was added to the appropriate wells.\n11. The plate was read on the luminometer (Labsystems Luminoskan, Needham Heights, Mass.) for 14 min. at 37° C. on the kinetic mode and the results recorded using the software DeltaSoft.\n12. The plate data was exported into Excel to determine percent of control and derive the means and standard deviations for the data. The IC50 was determined graphically from the data and plotted using SigmaPlot. For cases where one concentration (50 μM) was tested, percent inhibition was compared to that seen with 50 μM apocynin.\n13. The results are set forth below in Table 1 as \"Neutrophil Burst IC50 (Lucigenin)\". The results for 50 μM inhibition in the single assay are reported as \"Neutrophil Burst Screen Value (% @ 50 μM)\"."}, "[2]": {"target": "T1, Xanthine oxidase (Bos taurus, UniProt P80457)", "T1 construct": "purchased Sigma x-1875; host or cells: buttermilk", "T1 sequence (P80457 whole entry)": "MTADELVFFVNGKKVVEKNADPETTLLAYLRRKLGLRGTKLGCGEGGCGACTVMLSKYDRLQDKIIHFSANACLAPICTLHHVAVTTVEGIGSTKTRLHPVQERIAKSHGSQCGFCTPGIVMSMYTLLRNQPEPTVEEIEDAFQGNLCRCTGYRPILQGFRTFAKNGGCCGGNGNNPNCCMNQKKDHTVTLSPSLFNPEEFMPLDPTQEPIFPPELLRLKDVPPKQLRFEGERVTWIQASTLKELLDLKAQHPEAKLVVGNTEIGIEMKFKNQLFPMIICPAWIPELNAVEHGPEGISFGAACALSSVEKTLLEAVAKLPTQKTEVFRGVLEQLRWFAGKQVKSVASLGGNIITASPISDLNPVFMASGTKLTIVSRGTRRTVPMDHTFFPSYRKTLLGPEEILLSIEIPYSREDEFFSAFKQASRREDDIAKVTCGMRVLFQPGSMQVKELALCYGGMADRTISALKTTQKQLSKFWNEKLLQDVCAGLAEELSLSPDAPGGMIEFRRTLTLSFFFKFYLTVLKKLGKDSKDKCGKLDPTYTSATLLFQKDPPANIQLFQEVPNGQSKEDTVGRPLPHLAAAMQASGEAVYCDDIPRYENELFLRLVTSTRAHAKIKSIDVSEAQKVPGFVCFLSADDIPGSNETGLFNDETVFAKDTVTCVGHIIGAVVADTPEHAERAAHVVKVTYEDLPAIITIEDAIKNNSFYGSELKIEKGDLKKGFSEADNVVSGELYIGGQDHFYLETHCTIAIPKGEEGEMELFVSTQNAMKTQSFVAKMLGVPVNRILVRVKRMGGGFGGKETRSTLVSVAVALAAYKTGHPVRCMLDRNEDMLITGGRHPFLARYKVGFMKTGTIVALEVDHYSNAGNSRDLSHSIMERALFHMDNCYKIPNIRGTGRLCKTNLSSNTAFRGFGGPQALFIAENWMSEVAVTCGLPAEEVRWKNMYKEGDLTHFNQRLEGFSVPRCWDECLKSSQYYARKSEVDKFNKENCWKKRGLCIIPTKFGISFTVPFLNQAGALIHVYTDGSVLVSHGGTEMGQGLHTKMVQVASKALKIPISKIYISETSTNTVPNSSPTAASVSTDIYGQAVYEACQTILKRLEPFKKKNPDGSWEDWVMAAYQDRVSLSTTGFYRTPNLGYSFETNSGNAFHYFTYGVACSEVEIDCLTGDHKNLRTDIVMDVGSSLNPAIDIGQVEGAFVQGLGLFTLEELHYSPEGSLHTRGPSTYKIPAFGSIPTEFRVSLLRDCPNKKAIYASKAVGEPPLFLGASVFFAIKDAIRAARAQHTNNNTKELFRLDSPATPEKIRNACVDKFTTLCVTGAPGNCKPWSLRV", "test": "Xanthine oxidase assay (superoxide by hypoxanthine/xanthine oxidase, Lucigenin)", "type": "biochemical", "details": "hypoxanthine 150 μM, buttermilk xanthine oxidase, 37° C.; for IC50: read-out: Xanthine Oxidase Inhibition IC50 (Integral)"}, "[3]": {"test_system": "Jurkat cells", "test": "Cytotoxicity assay employing Jurkat cells (MTT)", "type": "cell-based", "details": "Jurkat clone E6-1, MTT, 37° C. overnight", "description": "This Assay was performed as set forth in Hansen et al., Journal of Immunological Methods, 119:203-210 (19930; Mosmann, Journal of Immunological Methods, 65:55-63 (1983); and Slater et al., Biochem. Ciophys. Acta, 77:383 (1963); except as noted below.\nCompounds from the following Examples were tested for cytotoxicity using MTT (i.e., 3-[4,5-Dimethylthiazol-2-yl]-2,5-diphenyltetrazolium bromide; Thiazolyl Blue (Sigma, St. Louis, Mo.)).\nMTT was dissolved in basal culture media at a concentration of 5 mg/ml. If necessary, it was briefly warmed at 37° C. to fully dissolve, passed through a sterile filter, and aliquoted and stored at -20° C. until use.\nThe Extraction Buffer used was a solution composed of 20% SDS, 2.5% Acetic Acid (80% 6 stock solution), 2.5% 1N Hcl, 50% Dimethylformamide/50% dissolved in distilled water, SDS was dissolved into buffer components with gentle heating and stirring and the resultant solution was filtered and stored until use.\nThe MTT solution was added in an amount equal to 10% of the culture volume to each well in a 96-well plate containing 100,000 Jurkat cells/well.\nThe wells were then incubated for 0.5 to 2 hours in standard culture conditions. A volume of extraction buffer equal to the culture volume was added. The 96-well plate was then sealed. The formazan crystals were allowed to extract at 37° C. for four hours. The plate was read on a spectrophotometer [Spectramax 250, Molecular Devices, Sunnyvale, Calif.] at an absorbance wavelength of 560 nm. (The background absorbance measured at 650 nm was subtracted from the value measured at 560 nm.)\nThe Jurkat cells (Jurkat clone E6-1) were grown using standard conditions supplied by ATCC (American Type Culture Collection--Rockville, Md.).\nThe compounds diluted in medium (RPMI 1640 plus 10% fetal bovine serum) stock solution of 100 μM, then this stock solution was further diluted 3-fold before testing in the instant assay.\n2-Hydroxy-3-methoxy-E-nitrostyrene tested at 100 μM as death control cells, incubated under the above conditions at 37° C. overnight.\nThe Extraction Buffer (100 μl) was added to each well and the resultant suspension was incubated 4 hours at 37° C.\nThe results from this procedure are set forth above in Table 1 in the column marked \"Cytotox (MTT/Jurkat)\". […] Toxicity was rated \"3\" if dead cells and >50% reduction in MTT absorbance at 1 μM test compound."}, "[4]": {"test_system": "neutrophils", "test": "Specificity: chemotaxis of neutrophils activated by f-Met-Leu-Phe", "type": "cell-based", "details": "50 μM", "description": "(§1) To assess specificity of action, the title compound (hereinafter \"Azine\") was tested for its ability to inhibit other functions of stimulated neutrophils and monocytes. The procedure followed was set forth in Mrowietz et al., British Journal of Dermatology, 127:382-386 (1992); Snyderman, Ralph, Methods for Studying Mononuclear Phagocytes, ed. Adams, Edelson, and Koren, New York, Academic Press, pp. 535-547 (1981); Sozzani et al., The Journal of Immunology, Oct. 1, 1991, pp. 2215-2221; Zigmond et al., The Journal of Experimental Medicine, 137:387 (1973); Wahl et al., Cell Immunol., 85:373 (1984); Wahl et al., Current Protocols in Immunology, ed. Coligan, Kruisbeek, Margulies, Shevach, and Strober, p. 7.6.1 (1991); Hogquist et al., J. Immunol, 147:2181 (1991). The Azine (50 μM) had no effect on chemotaxis of neutrophils activated by the chemotactic peptide f-Met-Leu-Phe."}, "[5]": {"test_system": "monocytes (IL-1 secretion)", "test": "Specificity: secretion of IL-1 by monocytes", "type": "cell-based", "details": "50 μM; LPS stimulated or unstimulated monocytes", "description": "as §1"}, "[6]": {"test_system": "monocytes (TNF secretion)", "test": "Specificity: secretion of TNF by monocytes", "type": "cell-based", "details": "50 μM; LPS stimulated or unstimulated monocytes", "description": "as §1"}}, "data": [{"smiles": "COc1cc(/C=N/N=C/c2ccc(O)c(OC)c2)ccc1O", "note": "[C, Bis[4-hydroxy-3-methoxybenzaldehyde]-trans,trans-azine]", "values": [{"measurement": "IC50", "setting": "[1]", "value": 4.9, "unit": "µM"}, {"measurement": "inhibition at 50 µM", "setting": "[1]; percent inhibition at 50 μM, single concentration, read-out: Neutrophil Burst Screen Value (% @ 50 μM)", "value": 85.6, "unit": "%"}, {"measurement": "Xanthine Oxidase Inhibition IC50 (Integral)", "setting": "[2]", "value": "No Effect"}, {"measurement": "Cytotox (MTT/Jurkat)", "setting": "[3]", "value": 0}, {"measurement": "effect on chemotaxis of neutrophils", "setting": "[4]", "value": "no effect"}, {"measurement": "inhibition of secretion of IL-1", "setting": "[5]", "value": "did not inhibit"}, {"measurement": "inhibition of secretion of TNF", "setting": "[6]", "value": "did not inhibit"}]}, {"smiles": "Oc1ccc(/C=N/N=C/c2ccc(O)c(O)c2)cc1O", "note": "[Example 12, Bis[3,4 - Dihydroxybenzaldehyde]trans,trans-Azine]", "values": [{"measurement": "IC50", "setting": "[1]", "value": 7.3, "unit": "µM"}, {"measurement": "IC50", "setting": "[2]", "value": 1.1, "unit": "µM"}, {"measurement": "Cytotox (MTT/Jurkat)", "setting": "[3]", "value": "1 (dead cells and >50% reduction in MTT absorbance were observed at 100 μM of the test compound)"}]}, {"smiles": "COc1cc(/C=N/N=C/c2ccccc2)ccc1O", "note": "[Example 13, N-[4-Hydroxy-3-Methoxybenzaldehyde]-N'-[Benzaldehyde]trans,trans-Azine]", "values": [{"measurement": "IC50", "setting": "[1]", "value": 44, "unit": "µM"}, {"measurement": "Xanthine Oxidase Inhibition IC50 (Integral)", "setting": "[2]", "value": "No Effect"}, {"measurement": "Cytotox (MTT/Jurkat)", "setting": "[3]", "value": 0}]}, {"smiles": "COc1ccc(N=Cc2ccc(O)c(OC)c2)cc1", "note": "[Example 17, N-(3-Methoxy-4-Hydroxybenzylidene)-p-Methoxyaniline]", "values": [{"measurement": "IC50", "setting": "[1]", "value": 3.1, "unit": "µM"}, {"measurement": "Xanthine Oxidase Inhibition IC50 (Integral)", "setting": "[2]", "value": "No Effect"}, {"measurement": "Cytotox (MTT/Jurkat)", "setting": "[3]", "value": 0}]}, {"smiles": "COc1ccc(N=Cc2cc(OC)c(O)c(OC)c2)cc1", "note": "[Example 18, N-(3,5-Dimethoxy-4-Hydroxybenzylidene)-p-Methoxyaniline]", "values": [{"measurement": "IC50", "setting": "[1]", "value": 5, "unit": "µM"}, {"measurement": "IC50", "setting": "[2]", "value": 32, "unit": "µM"}, {"measurement": "Cytotox (MTT/Jurkat)", "setting": "[3]", "value": 0}]}]}
